{
  "source": "paper PMC8904520",
  "about": "“Characterization of a small-molecule inhibitor targeting NEMO/IKKβ to suppress colorectal cancer growth” (Signal Transduction and Targeted Therapy, 2022)",
  "key": {"[1]": {"tested_on": "LoVo/IKKβmut (D738A/W739A/W741A) xenograft", "assay": "LoVo/IKKβmut xenograft mouse model", "assay_type": "in vivo, athymic nude mice", "parameters": "dose or concentration left out as unconfirmed", "procedure": "Female athymic nude mice aged 5 weeks were purchased from Beijing Vital River Laboratory Animal Technology Co., Ltd., and kept in the SPF Laboratory Animal Center of Dalian Medical University (Dalian, China). All animals were given free access to sterilized food and water and were habituated for 7 days before the experiments. All procedures were carried out in strict accordance with the recommendations established by the Animal Care and Ethics Committee of Dalian Medical University as well as the guidelines promulgated in the U.S. National Institutes of Health Guide for the Care and Use of Laboratory Animals. LoVo cells (LoVo/wt and LoVo/ mut, 5×10^6 in 100 μL PBS) were injected subcutaneously near the axillary fossa of each nude mouse. Two weeks later, when the formed tumor reached 3-4mm, the animals were divided randomly into three groups with 5 mice in each group. […] The tumors were measured with a caliper once every two days, and the tumor volume was calculated using the formula V = 1/2 (width^2 × length). The body weight of the animals was also recorded. After treatment with SHK for 15 days, all experimental mice were sacrificed and the tumors from each mouse were excised and their weight was measured. […] The stained samples were examined under a Leica DM 4000B fluorescence microscope equipped with a digital camera. […]"}, "[2]": {"tested_on": "NO release in LoVo and RKO cells", "assay": "Nitric oxide production assay (Griess reagent)", "assay_type": "cell-based, human", "procedure": "After overnight culture in a 96-well plate (1 × 10^4 cells in 100 μL medium per well), the cells were pre-treated with SHK for 1 hour and lipopolysaccharide for an additional 24 hours. The culture supernatant from each well was collected at the end of the experiment and used to measure NO production. The NO production was determined using a commercial NO assay kit on the basis of the Griess reaction (S0021, Beyotime Institute of Biotechnology, Shanghai, China) according to the manufacturer’s instructions."}, "LoVo and RKO cells": {"tested_on": "LoVo and RKO cells", "assay": "Colony formation assay", "assay_type": "cell-based, human", "procedure": "Detached cells (1 × 10^3 per well) were seeded into six-well plates containing 2 mL of growth medium with 10% FBS and cultured for 24 h. Then, the medium was removed and the cells were treated with various concentrations of SHK. After 24 h, the cells were washed with PBS and supplemented with fresh growth medium. The cells were routinely incubated for about two weeks until colonies were large enough to be visualized. Then, the colonies were stained with 0.1% crystal violet and counted."}, "NEMO/IKKβ complex": {"target": "T1, NEMO/IKKβ complex (Homo sapiens, UniProt O14920+Q9Y6K9)", "T1 construct": "expressed in transfected cells; host or cells: HEK293T", "assay": "Co-immunoprecipitation of NEMO/IKKβ", "details": "Co-IP", "procedure": "The pre-cleared cell lysates were incubated with an anti-HA antibody on a rotating platform at 4 °C for 2 h, and then incubated for another 6 h with protein A/G-sepharose beads. The sepharose beads were washed three times with binding buffer, mixed with gel loading buffer and boiled for 5 min. The samples were centrifuged and the supernatants were used for western blot analysis. A specific antibody against the Flag-tag was applied for the detection of proteins.\nThe IKKβ and NEMO expression vectors were constructed by subcloning the full-length cDNA to pENTER-4T1 expression vector (Flag- or HA-tagged) developed by ViGene Biosciences, as described previously.[25] The 293T cells (1 × 10^6) were plated into 60 mm dishes for 1 day, and then transfected with the relevant plasmids encoding HA-IKKβ and Flag-NEMO using Lipofectamine 2000 transfection reagent (Invitrogen). After transfection, the cells were cultured for another 24 h. Subsequently, the transfected cells were trypsinized and seeded into 60 mm dishes, followed by culturing with fresh medium containing the indicated doses of SHK for 48 h, and then collected for the Co-IP assay."}, "[3]": {"tested_on": "colorectal cancer cells (LoVo, RKO, SW620, HCT15, HCT116)", "assay": "CCK-8 cell viability assay, colorectal cancer cells", "assay_type": "cell-based, human", "details": "48 h", "procedure": "Cell viability was determined using the CCK-8 assay. Briefly, 5×10³ cells were seeded into 96-well culture plates, allowed to adhere for overnight, and then changed to fresh medium containing various concentrations of SHK (0, 0.5, 1, 2 and 5 µM) dissolved in DMSO (final concentration, 0.1%). After incubation for 48 h, the CCK-8 reagent was added, and the absorbance was measured at 450 nm using an EnSpire® Multimode Plate Reader (Perkin Elmer, USA). The cell viability in the vehicle control groups was defined as 100%. Each assay was carried out in triplicate."}},
  "data": [
    {"smiles": "CC(C)=CC[C@@H](O)C1=CC(=O)c2c(O)ccc(O)c2C1=O", "note": "[SHK, Shikonin]", "values": [
      {"measurement": "inhibitory effect on tumor growth in LoVo/IKKβ mutant group compared with LoVo/wt", "setting": "[1]", "value": "significantly weakened"},
      {"measurement": "release of NO", "setting": "[2]", "value": "dramatically decreased"},
      {"measurement": "colony formation", "setting": "LoVo and RKO cells", "value": "colony formation suppression"},
      {"measurement": "association of full-length HA-IKKβ and Flag-NEMO", "setting": "NEMO/IKKβ complex; HEK293T cells", "value": "greatly reduced"},
      {"measurement": "ability to destabilize the NEMO/IKKβ complex", "setting": "NEMO/IKKβ complex; pre-formed complex", "value": "effectively reversed their association"},
      {"measurement": "IC50", "setting": "[3]; Homo sapiens, CCK-8, range over cell lines, read-out: IC50 for inhibition of proliferation in colorectal cancer cells", "value": "600 to 2500", "unit": "nM"},
      {"measurement": "growth inhibition of cancer cell lines", "setting": "[3]; LoVo, RKO, SW620, HCT15, HCT116", "value": "dose-dependent growth inhibition"}
    ]}
  ]
}
